Measured values from ChEMBL document CHEMBL3044851, “Immunomodulatory active steroidal saponins from Asparagus racemosus” (Med Chem Res, 2013).
Active and inactive are the calls of the source. The rule behind the calls is not given here.

What was measured:
[1] = test system: PMN; experiment: Immunomodulatory activity in Homo sapiens (human) PMN cells assessed as increase in reactive oxygen species formation at 1 uM at 40 min after luminal addition by chemiluminescence assay; format: functional, cell-based
[2] = test system: PMN; experiment: Immunomodulatory activity in Homo sapiens (human) PMN cells assessed as increase in reactive oxygen species formation at 1 uM at 0 min after luminal addition by chemiluminescence assay; format: functional, cell-based
[3] = test system: PMN; experiment: Immunomodulatory activity in Homo sapiens (human) PMN cells assessed as increase in superoxide species generation at 1 uM after 2 hr by NBT assay; format: functional, cell-based
[4] = test system: PMN; experiment: Immunomodulatory activity in Homo sapiens (human) PMN cells assessed as increase in NO release at 1 uM after 1 hr by ELISA plate reader analysis; format: functional, cell-based
[5] = test system: PMN; experiment: Immunomodulatory activity in Homo sapiens (human) PMN cells assessed as increase in reactive oxygen species formation at 0.001 to 0.0075 ug/ml at 40 min after luminal addition by chemiluminescence assay; format: functional, cell-based
[6] = test system: PMN; experiment: Immunomodulatory activity in Homo sapiens (human) PMN cells assessed as increase in NO release at 0.001 to 0.0075 ug/ml after 1 hr by ELISA plate reader analysis; format: functional, cell-based
[7] = test system: PMN; experiment: Immunomodulatory activity in Homo sapiens (human) PMN cells assessed as increase in phagocytic index using Candida albicans as an infectious organism after 1 hr by Giemsa staining based microscopic analysis; format: functional, cell-based
[8] = test system: PMN; experiment: Immunomodulatory activity in Homo sapiens (human) PMN cells assessed as increase in reactive oxygen species formation at 0 min after luminal addition by chemiluminescence assay; format: functional, cell-based
[9] = test system: PMN; experiment: Immunomodulatory activity in Homo sapiens (human) PMN cells assessed as increase in superoxide species generation at 0.001 to 0.0075 ug/ml after 2 hr by NBT assay; format: functional, cell-based
[10] = Immunomodulatory activity in Homo sapiens (human) PMN cells assessed as induction of phagocytosis using Candida albicans as an infectious organism at 0.0075 ug/ml after 1 hr by Giemsa staining based microscopic analysis (reference value: 27.33 +/-2.52%); format: functional
[11] = Immunomodulatory activity in Homo sapiens (human) PMN cells assessed as induction of phagocytosis using Candida albicans as an infectious organism at 0.005 ug/ml after 1 hr by Giemsa staining based microscopic analysis (reference value: 27.33 +/-2.52%); format: functional
[12] = Immunomodulatory activity in Homo sapiens (human) PMN cells assessed as induction of phagocytosis using Candida albicans as an infectious organism at 0.001 ug/ml after 1 hr by Giemsa staining based microscopic analysis (reference value: 27.33 +/-2.52%); format: functional
[13] = Immunomodulatory activity in Homo sapiens (human) PMN cells assessed as induction of phagocytosis using Candida albicans as an infectious organism at 1 uM after 1 hr by Giemsa staining based microscopic analysis (reference value: 27.33 +/-2.52%); format: functional
[14] = Cytotoxicity against Homo sapiens (human) PMN cells assessed as cell viability at 1 ug/ml by trypan blue dye exclusion test (reference value: 83.94 +/-5.05%); format: cell-based; conditions: read-out: Activity
[15] = Cytotoxicity against Homo sapiens (human) PMN cells assessed as cell viability at 0.5 ug/ml by trypan blue dye exclusion test (reference value: 83.94 +/-5.05%); format: cell-based; conditions: read-out: Activity
[16] = Cytotoxicity against Homo sapiens (human) PMN cells assessed as cell viability at 0.1 ug/ml by trypan blue dye exclusion test (reference value: 83.94 +/-5.05%); format: cell-based; conditions: read-out: Activity
[17] = Cytotoxicity against Homo sapiens (human) PMN cells assessed as cell viability at 0.01 ug/ml by trypan blue dye exclusion test (reference value: 83.94 +/-5.05%); format: cell-based; conditions: read-out: Activity
[18] = Cytotoxicity against Homo sapiens (human) PMN cells assessed as cell viability at 0.0075 ug/ml by trypan blue dye exclusion test (reference value: 83.94 +/-5.05%); format: cell-based; conditions: read-out: Activity
[19] = Cytotoxicity against Homo sapiens (human) PMN cells assessed as cell viability at 0.005 ug/ml by trypan blue dye exclusion test (reference value: 83.94 +/-5.05%); format: cell-based; conditions: read-out: Activity
[20] = Cytotoxicity against Homo sapiens (human) PMN cells assessed as cell viability at 0.001 ug/ml by trypan blue dye exclusion test (reference value: 83.94 +/-5.05%); format: cell-based; conditions: read-out: Activity
[21] = test system: PMN; experiment: Immunomodulatory activity in Homo sapiens (human) PMN cells assessed as increase in reactive oxygen species formation at 0.001 ug/ml at 40 min after luminal addition by chemiluminescence assay; format: functional, cell-based
[22] = test system: PMN; experiment: Immunomodulatory activity in Homo sapiens (human) PMN cells assessed as increase in reactive oxygen species formation at 0.001 ug/ml at 0 min after luminal addition by chemiluminescence assay; format: functional, cell-based
[23] = test system: PMN; experiment: Immunomodulatory activity in Homo sapiens (human) PMN cells assessed as increase in phagocytic index using Candida albicans as an infectious organism at 0.005 ug/ml after 1 hr by Giemsa staining based microscopic analysis; format: functional, cell-based

| Structure (SMILES) | Activity [6] | Activity [9] | Activity [10] [%] | Activity [11] [%] | Activity [12] [%] | Activity [13] [%] | viability at 0.0075 ug/ml [18] [%] | viability at 0.005 ug/ml [19] [%] | viability at 0.001 ug/ml [20] [%] | further results |
| --- | --- | --- | --- | --- | --- | --- | --- | --- | --- | --- |
| CCCCCCCCCCCCCC(=O)O[C@@H]1[C@@H](C)[C@@]2(O)[C@@H](C=C(CO)C[C@]3(O)C(=O)C(C)=C[C@@H]23)[C@@H]2C(C)(C)[C@]12OC(C)=O |  |  |  |  |  |  |  |  |  | Activity [1]: Active; Activity [2]: Active; Activity [3]: Active; Activity [4]: Active |
| C[C@H]1CC[C@@]2(OC1)O[C@H]1C[C@H]3[C@@H]4CC[C@@H]5C[C@@H](O[C@@H]6O[C@H](CO[C@@H]7O[C@@H](C)[C@H](O)[C@@H](O)[C@H]7O)[C@@H](O)[C@H](O)[C@H]6O[C@@H]6OC[C@H](O)[C@H](O)[C@H]6O)CC[C@]5(C)[C@H]4CC[C@]3(C)[C@H]1[C@@H]2C [SHATAVAROSIDE A] | Active | Active | 23.5 | 29.33 | 32 | 35 | 100 | 100 | 100 | Activity [5]: Active; Activity [7]: Dose-dependent effect; Activity [8]: Dose-dependent effect; viability at 1 ug/ml [14]: 76.2%; viability at 0.5 ug/ml [15]: 71.2%; viability at 0.1 ug/ml [16]: 71.7%; viability at 0.01 ug/ml [17]: 72.3% |
| C[C@H]1CC[C@@]2(OC1)O[C@H]1C[C@H]3[C@@H]4CC[C@@H]5C[C@@H](O[C@@H]6O[C@H](CO[C@@H]7O[C@@H](C)[C@H](O)[C@@H](O)[C@H]7O)[C@@H](O[C@@H]7OC[C@@H](O)[C@H](O)[C@H]7O)[C@H](O)[C@H]6O[C@@H]6O[C@H](CO)[C@@H](O)[C@H](O)[C@H]6O)CC[C@]5(C)[C@H]4CC[C@]3(C)[C@H]1[C@@H]2C [SHATAVAROSIDE B] | Active | Active | 26.33 | 28.17 | 36.83 | 35 | 91 | 92.8 | 94.2 | Activity [21]: Active; Activity [22]: Active; Activity [23]: Active |
